In patent US8329914B2, “Cyclic benzimidazole derivatives useful as anti-diabetic agents” (Merck Sharp & Dohme Corp, priority 2008, dated 2012):

Legend:
[1] = target: recombinant human AMPK complex 1 (containing α1β1γ1) (Homo sapiens, UniProt Q13131+Q9Y478); experiment: AMPKSAMSF (in vitro AMPK activation assay); format: biochemical; conditions: recombinant human AMPK complex 1 (α1β1γ1); for Emax: basal activity subtracted, read-out: % Maximum AMP Activation of human AMPK Complex 1
Procedure: The recombinant human AMPK complex 1 (containing α1β1γ1) was obtained from baculovirus expression system. Recombinant viruses were generated by cotransfection of AMPK/pBacPak9 clones with Baculogold baculovirus DNA (Pharmingen) in spodoptera frugiperda 21 cells according to the manufacturer's instructions. Each round of virus amplification was performed for 5 days in Grace's medium containing 10% serum. Virus that had been subjected to three rounds of amplification was used for all protein production procedures. To express the AMPK complex, sf21 cells were adapted to serum free medium (SF900 II, Invitrogen) by sequential dilution from serum containing stocks into SF900II medium and maintained in shaker flasks at 90 rpm at 27° C. The recombinant AMPK enzyme complex was produced by triple infection, one recombinant virus for each of the subunits, in sf21 cells under serum free conditions. Cells were infected in log phase, 1×10^6 cells/ml, at a multiplicity of infection of ˜5. Cells were harvested by centrifugation at 10,000×g for 15 minutes after 72 hours of infection with viruses. The insect cell pellet from 2 liters of culture was resuspended in 50 ml lysis buffer (20 mM Tris-HCl, 50 mM NaCl, 50 mM NaF, 30 mM Na PPi, 0.25 M sucrose, 10 mM ZnCl2, 2 mM DTT, 0.4 mg/ml digitonin) and subjected to two cycles of freeze-thaw lysis in a dry-ice ethanol bath. Insoluble material was removed by centrifugation at 10,000×g and the supernatant was fractionated with use of polyethylene glycol (PEG). The protein fraction precipitating between 2.5 and 6% PEG was used for further purification using a Blue-Sepharose step (Zhou et al, J. Clin Invest. 108, 1167-1174, 2001).
The total in vitro AMPK activation assay volume is 50 μl in a 96-well plate. The reaction mixture contained 100 μM ATP (0.5 μCi ^33P-ATP per reaction), and 50 μM SAMS (HMRSAMSGLHLVKRR) in a buffer (20 mM HEPES, pH 7.0, 5 mM MgCl2, 0.01% Brij35). The reaction was initiated with addition of the enzyme. After 30-minute incubation at 30° C., the reaction was stopped by addition of 80 μl 1% H3PO4. Aliquots (100 μl) were transferred to 96-well MultiScreen plates (MAPHNOB50; Millipore Corp., Bedford, Mass., USA). The plate was washed three times with 1% H3PO4 followed by detection in a Top-count. The counts per minute from the basal activity (the reaction without activator) was subtracted from each well and the data were expressed as % maximum AMP activation followed by EC50 calculation.

ob/ob and db/db mice = conditions: following 8 weeks of administration; cited from earlier work

Sequence of recombinant human AMPK complex 1 (containing α1β1γ1) (Q13131 whole entry): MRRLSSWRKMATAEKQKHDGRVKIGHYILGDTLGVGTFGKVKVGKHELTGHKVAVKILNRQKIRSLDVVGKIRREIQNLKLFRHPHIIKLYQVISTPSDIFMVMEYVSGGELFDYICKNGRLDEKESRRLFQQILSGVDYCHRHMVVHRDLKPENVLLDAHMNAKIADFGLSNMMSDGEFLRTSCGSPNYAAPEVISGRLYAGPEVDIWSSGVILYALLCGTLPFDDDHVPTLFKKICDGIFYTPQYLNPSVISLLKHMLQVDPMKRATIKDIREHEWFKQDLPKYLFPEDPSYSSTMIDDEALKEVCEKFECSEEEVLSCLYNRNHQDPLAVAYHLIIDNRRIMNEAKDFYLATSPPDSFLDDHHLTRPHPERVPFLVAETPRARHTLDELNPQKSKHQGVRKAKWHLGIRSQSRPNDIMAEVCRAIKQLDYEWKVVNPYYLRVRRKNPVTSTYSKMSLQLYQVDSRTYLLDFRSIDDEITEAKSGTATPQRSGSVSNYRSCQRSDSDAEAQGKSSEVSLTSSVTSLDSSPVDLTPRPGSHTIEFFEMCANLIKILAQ
Sequence of recombinant human AMPK complex 1 (containing α1β1γ1) (Q9Y478 whole entry): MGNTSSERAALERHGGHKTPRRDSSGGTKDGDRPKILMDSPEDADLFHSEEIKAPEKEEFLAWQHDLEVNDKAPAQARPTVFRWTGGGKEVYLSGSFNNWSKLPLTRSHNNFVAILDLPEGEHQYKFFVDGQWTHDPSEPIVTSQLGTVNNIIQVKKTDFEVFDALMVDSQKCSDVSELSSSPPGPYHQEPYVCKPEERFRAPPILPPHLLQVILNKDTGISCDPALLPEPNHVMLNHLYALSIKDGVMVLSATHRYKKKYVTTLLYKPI
Sequence of recombinant human AMPK complex 1 (containing α1β1γ1) (P54619 whole entry partner): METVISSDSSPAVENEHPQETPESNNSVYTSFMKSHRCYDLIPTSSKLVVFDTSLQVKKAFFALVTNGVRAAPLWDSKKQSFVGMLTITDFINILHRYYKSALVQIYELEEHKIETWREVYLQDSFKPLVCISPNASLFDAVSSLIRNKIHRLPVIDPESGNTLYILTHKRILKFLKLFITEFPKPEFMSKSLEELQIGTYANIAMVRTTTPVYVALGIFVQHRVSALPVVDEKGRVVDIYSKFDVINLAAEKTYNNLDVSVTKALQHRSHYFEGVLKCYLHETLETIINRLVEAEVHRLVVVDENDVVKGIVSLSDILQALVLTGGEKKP

SMILES: O=P(O)(O)CSc1nc2cc(C#Cc3ccc(F)cc3)c(Cl)cc2[nH]1 [Example 2]
- Emax [1]: > 60%

SMILES: O=P(O)(O)CSc1nc2cc(C#Cc3cccnc3)c(Cl)cc2[nH]1 [Example 10]
- Emax [1]: > 60%

SMILES: O=P(O)(O)CSc1nc2cc(-c3ccc(Cl)c(F)c3)c(Cl)cc2[nH]1 [Example 15, [6-Chloro-5-(4-chloro-3-fluoro-phenyl)-1H-benzoimidazol-2-ylsulfanylmethyl]phosphonic acid]
- Emax [1]: > 60%

SMILES: O=P(O)(O)CSc1nc2cc(C#Cc3ccc(C(F)(F)F)cc3)c(Cl)cc2[nH]1 [Example 3]
- Emax [1]: > 60%

SMILES: O=P(O)(O)CSc1nc2cc(C#Cc3ccccc3O)c(Cl)cc2[nH]1 [Example 9]
- Emax [1]: > 60%

SMILES: Cc1cncc(-c2ccc(-c3cc4nc(SCP(=O)(O)O)[nH]c4cc3Cl)cc2)c1 [Example 24, (5-chloro-6-[4-(5-methyl-pyridin-3-yl)-phenyl]-1H-benzo[d]imidazol-2-ylthio)methylphosphonic acid]
- Emax [1]: > 60%

SMILES: O=P(O)(O)CSc1nc2cc(C#Cc3ccc(CO)cc3)c(Cl)cc2[nH]1 [Example 7]
- Emax [1]: > 60%

SMILES: CCOP(=O)(CSc1nc2cc(-c3ccc(Br)cc3)c(Cl)cc2[nH]1)OCC [Example 13]
- Emax [1]: > 60%

SMILES: O=P(O)(O)CCCc1nc2cc(-c3ccc(-c4ccccc4)cc3)c(Cl)cc2[nH]1 [Example 25, [3-(5-Biphenyl-4-yl-6-chloro-1H-benzoimidazol-2-yl)-propyl]-phosphonic acid]
- Emax [1]: > 60%

SMILES: CSc1ccc(-c2cc3nc(SCP(=O)(O)O)[nH]c3cc2Cl)cc1 [Example 17, [6-Chloro-5-(4-methylsulfanyl-phenyl)-1H-benzoimidazol-2-ylsulfanylmethyl]-phosphonic acid]
- Emax [1]: > 60%

SMILES: Cc1cc(-c2cc3nc(SCP(=O)(O)O)[nH]c3cc2Cl)ccc1Cl [Example 12, [6-Chloro-5-(4-chloro-3-methyl-phenyl)-1H-benzoimidazol-2ylsulfanylmethyl]-phosphonic acid]
- Emax [1]: > 60%

SMILES: O=P(O)(O)CSc1nc2cc(C#Cc3ccccn3)c(Cl)cc2[nH]1 [Example 5]
- Emax [1]: > 60%

SMILES: COc1ccc(-c2ccc(-c3cc4nc(SCP(=O)(O)O)[nH]c4cc3Cl)cc2)cn1 [Example 21, (5-chloro-6-(4-(6-methoxypyridin-3-yl)phenyl)-1H-benzo[d]imidazol-2-ylthio)methylphosphonic acid]
- Emax [1]: > 60%

SMILES: CCC(=O)SCCOP(=O)(O)CSc1nc2cc(-c3ccc(-c4ccccc4)cc3)c(Cl)cc2[nH]1 [Example 32, Thiopropionic acid S-{2-[(5-biphenyl-4-yl-6-chloro-1H-benzoimidazol-2-ylsulfanylmethyl)-hydroxy-phosphinoyloxy]-ethyl}ester]
- Emax [1]: > 60%

SMILES: O=C(NC1CC1)c1cc(-c2cc3nc(SCP(=O)(O)O)[nH]c3cc2Cl)ccc1Cl [Example 18, [6-Chloro-5-(4-chloro-3-cyclopropylcarbamoyl-phenyl)-1H-benzoimidazol-2-ylsulfanylmethyl]-phosohonic acid]
- Emax [1]: > 60%

SMILES: O=P(O)(O)CCc1nc2cc(-c3ccc(-c4ccccc4)cc3)c(Cl)cc2[nH]1 [Example 26, [2-(Biphenyl-4-yl-6-chloro-1H-benzoimidazol-2-yl)-ethyl]-phosphonic acid]
- Emax [1]: > 60%

SMILES: O=P(O)(O)CSc1nc2cc(C#Cc3ccc(Cl)cc3)c(Cl)cc2[nH]1 [Example 11]
- Emax [1]: > 60%

SMILES: NC(=O)c1ncn([C@@H]2O[C@H](CO)[C@@H](O)[C@H]2O)c1N [AICAR]
- blood glucose reduction (ob/ob and db/db mice): 35%

SMILES: CN(C)C(=O)c1ccc(-c2cc3nc(SCP(=O)(O)O)[nH]c3cc2Cl)cc1 [Example 14, [6-Chloro-5-(4-dimethylcarbamoyl-phenyl)-1H-benzoimidazol-2-ylsulfanylmethyl]-phosphonic acid]
- Emax [1]: > 60%

SMILES: O=[P@@]1(CSc2nc3cc(-c4ccc(-c5ccccc5)cc4)c(Cl)cc3[nH]2)OCC[C@@H](c2ccncc2)O1 [Example 35, 5-Biphenyl-4-yl-6-chloro-2-(trans{5[1-yl-(4-pyridyl)]}-1-phosphono-2,6-dioxophosphinan-2-ylmethylsulfanyl)-1H-benzoimidazole]
- Emax [1]: > 60%

SMILES: CC(C)(C)C(=O)OCOP(=O)(CSc1nc2cc(-c3ccc(-c4ccccc4)cc3)c(Cl)cc2n1COC(=O)C(C)(C)C)OCOC(=O)C(C)(C)C [Example 36, 2,2-Dimethyl-propionic acid[5-biphenyl-4-yl-6-chloro-1-(2,2-dimethylpropionyl-oxymethyl)-1H-benzoimidazol-2-ylsulfanylmethyl]-(2,2-dimethyl-propionyl-oxymethoxy)-phosohinoyloxymethyl ester]
- melting point: 210 to 215 °C
- Emax [1]: > 60%

SMILES: COc1ccc(COP(=O)(O)CSc2nc3cc(-c4ccc(-c5ccccc5)cc4)c(Cl)cc3[nH]2)cc1F [Example 31, (5-Biphenyl-4-yl-6-chloro-1H-benzoimidazol-2-ylsulfanylmethyl)-phosphonic acid mono-(3-fluoro-4-methoxy-benzyl)ester]
- Emax [1]: > 60%

SMILES: O=P(O)(O)CSc1nc2cc(-c3ccc(-c4cccnc4)cc3)c(Cl)cc2[nH]1 [Example 22, (5-chloro-6-(4-(pyridin-3-yl)phenyl)-1H-benzo[d]imidazol-2-ylthio)methyl-phosphonic acid]
- EC50 [1]: 82 nM

SMILES: O=P(O)(O)CSc1nc2cc(-c3ccc4[nH]ccc4c3)c(Cl)cc2[nH]1 [Example 27]
- EC50 [1]: 233 nM

SMILES: CC(C)Oc1ccc(-c2ccc(-c3cc4nc(SCP(=O)(O)O)[nH]c4cc3Cl)cc2)cc1 [Example 23, (5-chloro-6-(4′-isopropoxy-biphenyl-4-yl)-1H-benzo[d]imidazol-2-ylthio)methylphosphonic acid]
- Emax [1]: > 60%

SMILES: O=P(O)(O)CSc1nc2cc(-c3ccc(N4CCOCC4)cc3)c(Cl)cc2[nH]1 [Example 20, (5-chloro-6-(4-morpholinophenyl)-1H-benzo[d]imidazol-2-ylthio)methylphosphonic acid]
- Emax [1]: > 60%

SMILES: O=P(O)(O)CSc1nc2cc(C#Cc3ccc(F)cc3F)c(Cl)cc2[nH]1 [Example 8]
- EC50 [1]: 184 nM

SMILES: O=P(O)(O)CSc1nc2cc(-c3ccc(-c4ccccc4)cc3)c(Cl)cc2[nH]1 [Example 29]
- EC50 [1]: 137 nM

SMILES: O=P(O)(O)CSc1nc2cc(C#Cc3cccc(F)c3)c(Cl)cc2[nH]1 [Example 4]
- Emax [1]: > 60%

SMILES: CCC(=O)SCCOP(=O)(CSc1nc2cc(-c3ccc(-c4ccccc4)cc3)c(Cl)cc2[nH]1)OCCSC(=O)CC [Example 33, Thiopropionic acid S-{2-[(5-biphenyl-4-yl-6-chloro-1H-benzoimidazol-2-ylsulfanylmethyl)-(2-propionylsulfanyl-ethoxy)-phosphinoyloxy]-ethyl}ester]
- Emax [1]: > 60%

SMILES: O=P(O)(O)CSc1nc2cc(Cl)c(C#Cc3ccccc3)cc2[nH]1 [Example 1, (5-Chloro-6-phenylethynyl-1H-benzoimidazol-2-ylsulfanylmethyl)-phosphonic acid]
- melting point: 210 to 215 °C
- Emax [1]: > 60%

SMILES: O=P(O)(O)CSc1nc2cc(C#Cc3ccccc3F)c(Cl)cc2[nH]1 [Example 6]
- Emax [1]: > 60%

SMILES: O=[P@]1(CSc2nc3cc(-c4ccc(-c5ccccc5)cc4)c(Cl)cc3[nH]2)OCC[C@@H](c2ccncc2)O1 [Example 34, 5-Biphenyl-4-yl-6-chloro-2-(cis{5[1-yl-(4-pyridyl)]}-1-phosphono-2,6-dioxophosphinan-2-ylmethylsulfanyl)-1H-benzoimidazole]
- Emax [1]: > 60%

SMILES: O=P(O)(O)CSc1nc2cc(-c3ccc(Cl)c(Cl)c3)c(Cl)cc2[nH]1 [Example 16, [6-Chloro-5-(3,4-dichloro-phenyl)-1H-benzoimidazol-2-ylsulfanylmethyl]-phosphonic acid]
- Emax [1]: > 60%

SMILES: O=P1(CSc2nc3cc(-c4ccc(-c5ccccc5)cc4)c(Cl)cc3[nH]2)OCCC(c2cccc(Cl)c2)O1 (centres unmarked) [Example 30, 5-Biphenyl-4-yl-6-chloro-2-[4-(3-chloro-phenyl)-2-oxo-2lambda*5*-[1,3,2]-dioxaphosphinan-2-ylmethylsulfanyl]-1H-benzoimidazole]
- Emax [1]: > 60%

SMILES: Cn1ccc2cc(-c3cc4nc(SCP(=O)(O)O)[nH]c4cc3Cl)ccc21 [Example 28]
- EC50 [1]: 58 nM
